# Laboratory results: ChEMBL document CHEMBL1782028, “Evaluation of structurally diverse neuronal nicotinic receptor ligands for selectivity at the alpha6( *) subtype” (Bioorg Med Chem Lett, 2009)
# How the values were obtained:
# [1] = target: T1, Neuronal acetylcholine receptor subunit alpha-6/beta-2 (Mus musculus, UniProt Q9ERK7+Q9R0W9); experiment: Displacement of [125I]-alpha-Conotoxin MII from alpha6beta2* nAChR in mouse olfactory tubercles, striatum and superior coliculus; assay type: tissue-based, Olfactory tubercle
# T1 sequence (Q9ERK7 whole entry): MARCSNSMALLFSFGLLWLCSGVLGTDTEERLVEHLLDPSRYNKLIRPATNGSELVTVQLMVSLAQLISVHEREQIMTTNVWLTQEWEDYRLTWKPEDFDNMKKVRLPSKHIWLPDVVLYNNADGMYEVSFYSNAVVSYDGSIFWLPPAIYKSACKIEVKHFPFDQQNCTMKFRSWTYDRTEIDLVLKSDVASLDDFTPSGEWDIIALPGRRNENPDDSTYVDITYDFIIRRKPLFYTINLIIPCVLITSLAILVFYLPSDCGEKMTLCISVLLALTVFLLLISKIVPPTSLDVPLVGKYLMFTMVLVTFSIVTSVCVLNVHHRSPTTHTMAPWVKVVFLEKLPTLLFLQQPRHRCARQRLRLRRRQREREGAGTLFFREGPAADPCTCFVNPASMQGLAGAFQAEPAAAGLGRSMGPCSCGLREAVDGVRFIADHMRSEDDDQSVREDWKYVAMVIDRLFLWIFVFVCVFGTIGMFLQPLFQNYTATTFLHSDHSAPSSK
# T1 sequence (Q9R0W9 whole entry): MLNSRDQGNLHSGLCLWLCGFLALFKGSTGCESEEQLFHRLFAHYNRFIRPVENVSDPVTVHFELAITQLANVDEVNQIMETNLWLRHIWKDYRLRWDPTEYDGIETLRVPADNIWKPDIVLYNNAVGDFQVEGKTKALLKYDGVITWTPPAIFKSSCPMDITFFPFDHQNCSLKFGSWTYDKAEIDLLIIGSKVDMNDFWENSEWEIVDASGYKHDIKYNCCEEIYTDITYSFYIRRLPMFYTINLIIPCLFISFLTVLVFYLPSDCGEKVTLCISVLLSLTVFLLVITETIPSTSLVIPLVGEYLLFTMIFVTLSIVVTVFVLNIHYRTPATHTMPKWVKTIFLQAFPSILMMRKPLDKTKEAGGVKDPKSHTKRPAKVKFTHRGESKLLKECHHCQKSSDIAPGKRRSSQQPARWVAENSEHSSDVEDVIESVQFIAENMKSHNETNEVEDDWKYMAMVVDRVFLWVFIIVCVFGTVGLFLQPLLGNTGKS
# [2] = target: Nicotinic acetylcholine receptor alpha-4/beta-2 (Mus musculus) (UniProt Q9ERK7+Q8R493); experiment: Activity at alpha4beta2*nAChR in mouse striatal synaptosomes assessed as alpha-conotoxic MII-resistant DA release relative to control; assay type: subcellular; details: Brain
# [3] = Selectivity ratio, ratio of EC50 for alpha3beta4* nAChR in mouse to EC50 for alpha4beta2*nAChR in mouse
# [4] = target: Neuronal acetylcholine receptor subunit alpha-4/alpha-6/beta-2/beta-3 (Mus musculus, UniProt O70174+Q8BMN3+Q9ERK7+Q9R0W9); experiment: (§1) Activity at alpha6alpha4beta3beta2 nAChR in mouse striatal synaptosomes assessed as alpha-conotoxic […] DA release; assay type: subcellular, Brain
# Sequence of Neuronal acetylcholine receptor subunit alpha-4/alpha-6/beta-2/beta-3 (Mus musculus, UniProt O70174+Q8BMN3+Q9ERK7+Q9R0W9) (Q9ERK7 whole entry): as the sequence (Q9ERK7 whole entry) above
# Sequence of Neuronal acetylcholine receptor subunit alpha-4/alpha-6/beta-2/beta-3 (Mus musculus, UniProt O70174+Q8BMN3+Q9ERK7+Q9R0W9) (O70174 whole entry): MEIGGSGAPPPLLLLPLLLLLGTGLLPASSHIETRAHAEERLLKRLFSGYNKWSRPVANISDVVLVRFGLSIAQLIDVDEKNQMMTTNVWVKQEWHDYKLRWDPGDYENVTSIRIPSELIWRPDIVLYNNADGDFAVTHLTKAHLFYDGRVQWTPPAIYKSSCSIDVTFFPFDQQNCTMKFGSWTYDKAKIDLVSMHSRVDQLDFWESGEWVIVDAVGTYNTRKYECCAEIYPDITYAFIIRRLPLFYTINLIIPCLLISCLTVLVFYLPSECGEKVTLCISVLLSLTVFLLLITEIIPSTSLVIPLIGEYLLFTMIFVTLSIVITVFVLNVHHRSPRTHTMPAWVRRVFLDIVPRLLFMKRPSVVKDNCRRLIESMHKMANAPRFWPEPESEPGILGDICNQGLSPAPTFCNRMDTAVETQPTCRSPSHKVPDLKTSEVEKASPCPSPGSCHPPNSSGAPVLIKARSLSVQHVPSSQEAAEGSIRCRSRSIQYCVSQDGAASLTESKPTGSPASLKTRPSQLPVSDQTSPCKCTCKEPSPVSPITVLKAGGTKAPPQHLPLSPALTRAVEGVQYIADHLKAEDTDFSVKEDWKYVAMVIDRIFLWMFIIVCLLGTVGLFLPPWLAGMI
# Sequence of Neuronal acetylcholine receptor subunit alpha-4/alpha-6/beta-2/beta-3 (Mus musculus, UniProt O70174+Q8BMN3+Q9ERK7+Q9R0W9) (Q9R0W9 whole entry): as the sequence (Q9R0W9 whole entry) above
# Sequence of Neuronal acetylcholine receptor subunit alpha-4/alpha-6/beta-2/beta-3 (Mus musculus, UniProt O70174+Q8BMN3+Q9ERK7+Q9R0W9) (Q8BMN3 whole entry): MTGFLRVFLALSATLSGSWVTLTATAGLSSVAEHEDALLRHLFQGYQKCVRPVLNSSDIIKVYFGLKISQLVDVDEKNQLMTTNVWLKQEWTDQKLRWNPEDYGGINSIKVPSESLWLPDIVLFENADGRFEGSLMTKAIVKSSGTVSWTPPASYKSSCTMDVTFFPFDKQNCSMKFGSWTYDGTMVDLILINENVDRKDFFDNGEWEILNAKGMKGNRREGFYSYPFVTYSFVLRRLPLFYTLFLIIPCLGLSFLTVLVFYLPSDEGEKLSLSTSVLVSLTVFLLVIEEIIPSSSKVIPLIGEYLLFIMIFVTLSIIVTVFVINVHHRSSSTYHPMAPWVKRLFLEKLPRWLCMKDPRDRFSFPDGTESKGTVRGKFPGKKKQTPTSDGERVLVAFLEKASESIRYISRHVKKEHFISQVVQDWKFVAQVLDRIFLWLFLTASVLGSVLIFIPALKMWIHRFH
# [5] = target: Neuronal acetylcholine receptor subunit alpha-7 (Mus musculus, UniProt P49582); experiment: Displacement of [125I]alpha-bungarotoxin from alpha7 nAChR in C57BL/6J mouse hippocampal membrane; assay type: tissue-based, Hippocampus
# Sequence of Neuronal acetylcholine receptor subunit alpha-7 (P49582 whole entry): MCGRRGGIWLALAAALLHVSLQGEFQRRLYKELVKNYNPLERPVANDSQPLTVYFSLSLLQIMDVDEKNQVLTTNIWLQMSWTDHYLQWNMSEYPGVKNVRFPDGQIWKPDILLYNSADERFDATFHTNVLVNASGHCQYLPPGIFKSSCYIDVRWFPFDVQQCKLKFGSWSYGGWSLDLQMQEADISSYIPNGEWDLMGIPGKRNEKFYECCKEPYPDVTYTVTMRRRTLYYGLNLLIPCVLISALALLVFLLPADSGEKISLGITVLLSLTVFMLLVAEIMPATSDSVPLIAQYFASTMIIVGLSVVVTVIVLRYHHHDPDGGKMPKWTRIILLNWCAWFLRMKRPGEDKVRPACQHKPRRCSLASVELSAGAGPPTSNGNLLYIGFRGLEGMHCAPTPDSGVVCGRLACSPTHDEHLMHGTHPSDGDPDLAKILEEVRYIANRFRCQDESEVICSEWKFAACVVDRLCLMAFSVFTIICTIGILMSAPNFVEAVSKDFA
# [6] = target: Neuronal acetylcholine receptor subunit alpha-4/alpha-6/beta-2/beta-3 (Mus musculus) (UniProt Q9ERK7+O70174+Q9R0W9+Q8BMN3); experiment: Activity at alpha6alpha4beta3beta2 nAChR in mouse striatal synaptosomes assessed as alpha-conotoxic […] DA release relative to control; assay type: subcellular; details: Brain
# [7] = target: T2, Nicotinic acetylcholine receptor alpha-4/beta-2 (Mus musculus, UniProt Q8R493+Q9ERK7); experiment: Activity at alpha4beta2*nAChR in mouse striatal synaptosomes assessed as alpha-conotoxic MII-resistant DA release; assay type: subcellular, Brain
# T2 sequence (Q9ERK7 whole entry): as the sequence (Q9ERK7 whole entry) above
# T2 sequence (Q8R493 whole entry): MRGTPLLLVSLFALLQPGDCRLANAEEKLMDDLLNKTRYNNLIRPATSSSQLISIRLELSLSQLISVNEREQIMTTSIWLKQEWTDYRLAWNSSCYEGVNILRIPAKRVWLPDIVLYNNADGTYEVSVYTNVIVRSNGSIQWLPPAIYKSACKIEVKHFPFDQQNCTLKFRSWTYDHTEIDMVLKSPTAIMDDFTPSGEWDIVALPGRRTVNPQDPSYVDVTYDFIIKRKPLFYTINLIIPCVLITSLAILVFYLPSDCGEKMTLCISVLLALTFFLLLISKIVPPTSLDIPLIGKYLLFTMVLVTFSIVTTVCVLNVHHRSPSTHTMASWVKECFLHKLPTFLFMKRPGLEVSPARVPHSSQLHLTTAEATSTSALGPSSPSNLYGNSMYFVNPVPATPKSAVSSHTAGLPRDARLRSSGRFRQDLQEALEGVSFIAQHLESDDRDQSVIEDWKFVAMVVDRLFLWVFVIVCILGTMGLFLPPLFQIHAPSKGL
# [8] = target: T2, Nicotinic acetylcholine receptor alpha-4/beta-2; experiment: Displacement of [125I]epibatidine from alpha4beta2* nAChR in C57BL/6J mouse cortical membrane by gamma counting; assay type: cell membranes
# [9] = target: T3, Neuronal acetylcholine receptor subunit alpha-3/beta-4 (Mus musculus, UniProt Q8R493+Q8R4G9); experiment: Activity at alpha3beta4* nAChR in mouse interpeduncular nucleus assessed as [3H]ACh release by scintillation counting; assay type: tissue-based
# T3 sequence (Q8R493 whole entry): as above
# T3 sequence (Q8R4G9 whole entry): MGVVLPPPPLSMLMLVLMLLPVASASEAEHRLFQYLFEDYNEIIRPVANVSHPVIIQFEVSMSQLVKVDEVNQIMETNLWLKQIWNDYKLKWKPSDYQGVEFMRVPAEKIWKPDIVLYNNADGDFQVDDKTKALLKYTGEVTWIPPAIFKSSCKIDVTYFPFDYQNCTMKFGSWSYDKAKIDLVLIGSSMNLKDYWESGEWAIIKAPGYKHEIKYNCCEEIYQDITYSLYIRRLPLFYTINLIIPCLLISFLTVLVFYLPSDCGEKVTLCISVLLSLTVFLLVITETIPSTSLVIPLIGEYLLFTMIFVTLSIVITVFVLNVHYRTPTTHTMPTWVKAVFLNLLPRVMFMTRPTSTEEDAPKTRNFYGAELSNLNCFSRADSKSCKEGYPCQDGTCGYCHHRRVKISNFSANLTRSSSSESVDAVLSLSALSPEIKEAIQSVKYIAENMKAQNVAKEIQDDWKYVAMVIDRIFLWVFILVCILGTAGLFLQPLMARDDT
# [10] = Selectivity ratio, ratio of EC50 for alpha3beta4* nAChR in mouse to EC50 for alpha6beta2*nAChR in mouse
# [11] = target: T3, Neuronal acetylcholine receptor subunit alpha-3/beta-4; experiment: Activity at alpha3beta4* nAChR in mouse interpeduncular nucleus assessed as [3H]ACh release by scintillation counting relative to control; assay type: tissue-based
# [12] = target: Neuronal acetylcholine receptor subunit alpha-4/alpha-6/beta-2/beta-3 (Mus musculus, UniProt Q9ERK7+O70174+Q9R0W9+Q8BMN3); experiment: as §1; assay type: subcellular, Brain
# Sequence of Neuronal acetylcholine receptor subunit alpha-4/alpha-6/beta-2/beta-3 (Mus musculus, UniProt Q9ERK7+O70174+Q9R0W9+Q8BMN3) (Q9ERK7 whole entry): as the sequence (Q9ERK7 whole entry) above
# Sequence of Neuronal acetylcholine receptor subunit alpha-4/alpha-6/beta-2/beta-3 (Mus musculus, UniProt Q9ERK7+O70174+Q9R0W9+Q8BMN3) (O70174 whole entry): as the sequence (O70174 whole entry) above
# Sequence of Neuronal acetylcholine receptor subunit alpha-4/alpha-6/beta-2/beta-3 (Mus musculus, UniProt Q9ERK7+O70174+Q9R0W9+Q8BMN3) (Q9R0W9 whole entry): as the sequence (Q9R0W9 whole entry) above
# Sequence of Neuronal acetylcholine receptor subunit alpha-4/alpha-6/beta-2/beta-3 (Mus musculus, UniProt Q9ERK7+O70174+Q9R0W9+Q8BMN3) (Q8BMN3 whole entry): as the sequence (Q8BMN3 whole entry) above
# [13] = Selectivity ratio, ratio of EC50 for alpha3beta4* nAChR in mouse to Ki for alpha4beta2*nAChR in mouse
# [14] = Selectivity ratio, ratio of EC50 for alpha3beta4* nAChR in mouse to Ki for alpha6beta2*nAChR in mouse
# [15] = target: T1, Neuronal acetylcholine receptor subunit alpha-6/beta-2; experiment: Inhibition of mouse alpha6alpha4beta3beta2 nAChR; assay type: protein-complex assay
SMILES,Ki [1] [µM],Emax [2] [%],Ratio EC50 [3],EC50 [4] [µM],Ki [5] [µM],Emax [6] [%],EC50 [7] [µM],Ki [8] [µM],Emax [9] [%],Ratio EC50 [10],EC50 [11] [µM],Imax [6] [%],EC50 [12],Imax [2] [%],Ratio [13],Ratio [14],Ki [15] [µM]
C(=C\[C@@H]1CCNC1)/c1cncnc1.O=C(O)[C@@H](O)[C@H](O)[C@H](O)[C@@H](O)C(=O)O,0.325,133,8.5,0.53,> 10,48,19,0.024,97,304,161,,,,,,
CN1C2C=C(c3cncnc3)CC1CC2.O=C(O)C(F)(F)F (stereo not given),0.017,45,22.7,0.1,9.1,77,1.8,0.0012,35,410,41,,,,,,
c1cncc(CC2CC3CCN2CC3)c1 (stereo not given),,,,,,,,,,,,96,,,,,
C(=C\[C@@H]1CCNC1)/c1cccnc1.O=C(O)C(F)(F)F,0.184,109,3.6,0.8,3.16,66,4.4,0.011,58,20,16,,,,,,
CNCC/C=C/c1cccnc1.O=C(O)[C@@H](O)[C@H](O)[C@H](O)[C@@H](O)C(=O)O,1.55,122,26,,> 10,0,8.3,0.025,45,,218,,Not Active,,,,
O=C(O)C(F)(F)F.c1ncc(C2CC3CCN2CC3)cn1 (stereo not given),0.008,43,5.3,0.09,1.1,104,0.45,0.0018,95,26.7,2.4,,,,,,
C(#C[C@H]1CCCN1)c1cncnc1.O=C(O)[C@@H](O)[C@H](O)[C@H](O)[C@@H](O)C(=O)O,,,10.6,,,,,,,28,,,,,,,
c1cncc(C2CC3CCN2CC3)c1 (stereo not given),,29,,,,,,,,,,,,,,,
CN1C2C=C(c3cccnc3)CC1CC2.Cl.Cl (stereo not given),0.055,75,6.2,0.2,2.11,50,3.4,0.0098,71,105,21,,,,,,
C(#C[C@H]1CCCN1)c1cncnc1,0.34,64,,1.2,5.77,134,3.2,0.03,74,,34,,,,,,
CNCC/C=C/c1cncnc1.O=C(O)[C@@H](O)[C@H](O)[C@H](O)[C@@H](O)C(=O)O,1.06,73,1.6,37,> 10,80,5.9,0.069,4,0.26,9.5,,,,,,
C(#C[C@H]1CCCN1)c1cccnc1.O=C(O)[C@@H](O)[C@H](O)[C@H](O)[C@@H](O)C(=O)O,0.242,120,0.4,0.7,0.733,42,13,0.02,81,8,5.6,,,,,,
O=C(O)C(F)(F)F.c1ncc(CC2CC3CCN2CC3)cn1 (stereo not given),0.115,,,,2.59,,,0.059,106,,28,91,,92,87.5,11.2,2.5
